# Measurements as given in US9932584B2, “Interfering RNA delivery system and uses thereof” (Arrowhead Pharmaceuticals Inc., priority 2012, dated 2018).
# System: PPIB mRNA
# Experiment: siRNA delivery with CPP-10H peptides, PPIB mRNA by Taqman qRT-PCR
# Assay type: cell-based
# Conditions: GTM-3 cells; for suppression of PPIB mRNA expression: PPIB siRNA complexed with peptide 20:1 peptide:siRNA, 1 hour, 48 hour post-transfection, normalized to β-actin mRNA, relative to non-treated cells
# Experimental: The ability of 10 histidine residues (10H) to enhance endosomal release of siRNAs delivered using certain cell penetrating peptides (CPPs) was examined. […] (SEQ ID NO: 12). Peptidyl-prolyl cis-trans isomerase B (PPIB) siRNA and Non-Targeting siRNA #2 (NTC2) (Thermo Fisher Scientific, Dharmacon Products, Lafayette, Colo.) were complexed with TAT-10H, CTP-10H, and YM3-10H peptides (Abgent, Inc., San Diego, Calif.) at a 20:1 peptide: siRNA molar ratio for 30 minutes at room temperature, and applied to GTM-3 cells (Pang, I. H., et al., 1994 Curr Eye Res. 13:51-63) at a final siRNA concentration of 100-800 nM for 1 hour. PPIB mRNA and β-actin mRNA levels were determined by Taqman qRT-PCR assay (Applied Biosystems, Austin, Tex.) at 48 hour post-transfection (FIG. 1). Data were normalized to β-actin mRNA, and expressed relative to PPIB mRNA level in non-treated cells.
sequence,measurement,setting,value
CHHHHHGGRRARRRRRRHHGHHC (CHHHHHGGRRARRRRRRHHHHHC) [CTP-10H],non-specific silencing of PPIB mRNA expression with NTC2 control,"NTC2 non-targeting siRNA delivered with peptide, 800 nM siRNA, possibly due to a cytotoxic effect",significant silencing
same,suppression of PPIB mRNA expression,100 nM siRNA,~80%
same,suppression of PPIB mRNA expression,200 nM siRNA,≥ 90%
same,suppression of PPIB mRNA expression,800 nM siRNA,≥ 90%
